Measurements from patent US6420425B1, “Method for the broad based treatment of infections especially infections of organs such as the skin and vagina” (priority 1997, dated 2002).

What was measured:
[1] = tested on: fungi causing otomycosis; details: in vitro, five fungi; cited from earlier work
[2] = tested on: Candida albicans; details: microtiter broth, 25° C., 3-5 days
Procedure: (§1) The susceptibility of selected pathogens to individual and mixtures of acetic and boric acid was investigated, in vitro. Fresh isolates of Staphylococcus intermedius, Pseudomonas aeruginosa, Candida albicans, Microsporum canis and Malassezia pachydermatis were obtained from VHUP Clinical Veterinary Microbiology Laboratory. Staphylococcus and Pseudomonas were grown on Mueller-Hinton (M-H) broth overnight at approximately 37° C. and fungi were inoculated into Sabourauds Antibiotic broth medium and incubated at 25° C. for 4 days. Stock dilutions (2x) of both boric acid and acetic acid were prepared in M-H broth (for bacteria studies) or in Sabourauds Antibiotic Broth (for fungal studies). These concentrations were 1.0%, 4.0%, 7.5% and 10.0%. The stock solutions were used to prepare the full spectrum of all possible combinations of acetic and boric acids in 96 well microtiter plates. All wells were raised to a final volume of 100 ul as required. The organisms were diluted to an approximate concentration of 10^5 cfu and 10 ul of this preparation was inolculated into each well with an 8 channel micropipeter. The microtiter plates containing the bacteria were incubated at 35.5° C. for 18 to 24 hours. The plates containing the fungi were incubated at 25° C. for 3-5 days. The presence of the growth in the wells was recorded. These values determine the Minimum Inhibitory Concentration (MIC) of the acids at individual and mixed concentrations.

[3] = tested on: Staphylococcus intermedius; details: microtiter broth, 35.5° C., 18 to 24 hours
Procedure: as §1

[4] = tested on: Pseudomonas aeruginosa; details: microtiter broth, 35.5° C., 18 to 24 hours
Procedure: as §1

[5] = tested on: Candida albicans; details: in vitro; cited from earlier work
[6] = tested on: vulvovaginal candidiasis; details: in vivo; cited from earlier work

Structure (SMILES): CC(=O)O [acetic acid]
- fungitoxic effect [1]: Some antifungal effect

Structure (SMILES): OB(O)O [Boric acid, boric acid]
- growth inhibition [2]: inhibited
- growth inhibition [3]: inhibited
- growth inhibition [4]: inhibited
- activity against Candida albicans [5]: fungistatic
- efficacy in treating vulvovaginal candidiasis [6]: effective
